1 compound from paper PMC2151509 (The Journal of General Physiology, 2006) can be followed below.

For experiment [1], the target named is T1, rat olfactory CNGA2 channel (homomeric) (Rattus norvegicus, UniProt Q00195, E342K).
T1 sequence (Q00195 1-664 E342K): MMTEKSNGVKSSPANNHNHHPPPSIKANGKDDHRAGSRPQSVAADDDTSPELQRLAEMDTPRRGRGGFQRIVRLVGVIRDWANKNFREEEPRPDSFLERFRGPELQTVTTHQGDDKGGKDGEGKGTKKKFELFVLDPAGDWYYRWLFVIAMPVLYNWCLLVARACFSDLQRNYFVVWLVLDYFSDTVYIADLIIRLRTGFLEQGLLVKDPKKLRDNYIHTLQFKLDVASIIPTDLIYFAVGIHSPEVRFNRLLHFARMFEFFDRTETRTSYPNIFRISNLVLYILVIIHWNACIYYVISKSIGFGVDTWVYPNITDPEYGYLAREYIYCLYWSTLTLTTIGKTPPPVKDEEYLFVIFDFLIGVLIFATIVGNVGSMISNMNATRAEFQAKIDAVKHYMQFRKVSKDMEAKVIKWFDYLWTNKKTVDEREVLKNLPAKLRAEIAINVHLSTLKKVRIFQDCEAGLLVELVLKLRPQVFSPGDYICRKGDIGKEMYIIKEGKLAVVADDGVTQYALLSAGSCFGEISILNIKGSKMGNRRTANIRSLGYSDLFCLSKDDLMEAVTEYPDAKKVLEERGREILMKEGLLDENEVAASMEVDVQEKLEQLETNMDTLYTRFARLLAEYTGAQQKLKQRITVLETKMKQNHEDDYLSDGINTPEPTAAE
As to the kind of experiment: inside-out patch clamp, cGMP-activated current, Hill fit. It is filed as cell-based. (In general: The patch-clamp technique gives a direct electrical read-out from membranes.)

The target of experiment [2] is T2, rat olfactory CNGA2 channel (homomeric) (Rattus norvegicus, UniProt Q00195).
T2 sequence (Q00195 1-664): T1 sequence (Q00195 1-664 E342K) with K342E
As to the kind of experiment: inside-out patch clamp, cGMP-activated current. The format is biochemical. The settings on record: agonist; 5 mM cGMP; 145 mM NaCl, pH 7.4, 21 °C.

Molecules are shown by their SMILES. Changes are numbered by the printed parent chain.

As for `Nc1nc2c(ncn2[C@@H]2O[C@@H]3COP(=O)(O)O[C@H]3[C@H]2O)c(=O)[nH]1` [cGMP], the midpoint of the response in experiment [1], the EC50, lay at 8.6 ± 1.2 µM. In experiment [2], the “inside-out patch clamp, cGMP-activated current” value was “Macroscopic cGMP-activated currents in different NaCl dilutions in one inside-out patch with WT CNG channels”.
